This note sets out measurements from patent US11390621B2, “Chiral indole compounds and their use” (ARIAGEN, INC., priority 2019, dated 2022).

The structures appear in SMILES notation.

In one data set the target is T1, CYP3A4 (Homo sapiens, UniProt P08684).
T1 construct: from tissue; host or cells: human liver microsomes
Nature of the data set: CYP profiling: human liver microsomes with CYP3A4 inhibitor ketoconazole. The conditions noted are these: HLMs; for % Inhibition Relative to Negative Control, 3A4: 30 min. Further details: % Compound Metabolized at 30 min, CYP3A4 Inhibitor: concentration or dose not given beside the values. It is filed as in vitro ADME. As for the experimental part: In order to investigate the contributions of CYP1A2 and CYP3A4 to the metabolism of the compounds of the present disclosure, human liver microsomes were incubated with the test compounds for 30 minutes in the presence of selective chemical inhibitors furafylline (1A2) and ketoconazole (3A4).
For orientation: Microsomes from liver hold many membrane-bound enzymes, among them those of drug oxidation.

In another data set the target is T2, AhR (Homo sapiens, UniProt P35869).
T2 construct: host or cells: human HepG2 cells
T2 sequence (P35869 11-848): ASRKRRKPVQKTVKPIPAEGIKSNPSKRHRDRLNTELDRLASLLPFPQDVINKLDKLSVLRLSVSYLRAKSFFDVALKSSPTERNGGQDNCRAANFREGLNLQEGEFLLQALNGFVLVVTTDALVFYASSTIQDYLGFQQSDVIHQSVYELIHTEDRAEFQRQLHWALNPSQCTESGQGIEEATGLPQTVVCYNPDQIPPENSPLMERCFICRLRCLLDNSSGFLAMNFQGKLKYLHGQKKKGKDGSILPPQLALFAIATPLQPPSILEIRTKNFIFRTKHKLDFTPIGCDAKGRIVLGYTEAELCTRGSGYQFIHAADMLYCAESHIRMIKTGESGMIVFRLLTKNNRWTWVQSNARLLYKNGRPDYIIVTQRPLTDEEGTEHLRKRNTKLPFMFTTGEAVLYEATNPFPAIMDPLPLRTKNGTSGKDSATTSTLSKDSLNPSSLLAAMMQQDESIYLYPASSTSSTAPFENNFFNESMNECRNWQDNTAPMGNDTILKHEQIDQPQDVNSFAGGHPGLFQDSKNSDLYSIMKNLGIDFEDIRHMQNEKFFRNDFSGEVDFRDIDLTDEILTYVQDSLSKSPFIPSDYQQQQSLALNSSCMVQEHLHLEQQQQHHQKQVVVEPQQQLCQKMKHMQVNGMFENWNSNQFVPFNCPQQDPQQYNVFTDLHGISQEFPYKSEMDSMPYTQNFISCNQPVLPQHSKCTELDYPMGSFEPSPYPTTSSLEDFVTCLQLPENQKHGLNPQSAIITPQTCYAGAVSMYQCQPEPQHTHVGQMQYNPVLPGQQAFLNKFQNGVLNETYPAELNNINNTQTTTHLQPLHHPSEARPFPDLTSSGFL
Nature of the data set: EROD assay (7-ethoxy-resorufin-O-deethylase; CYP1A1 activity) in human HepG2 cells. The conditions noted are these: for EC90: HepG2, human HepG2 cells; for EC90 / EC50: Plate 2; for EC50 / fold more potent than ARI-164 by EC50 / fold more potent than ARI-164 by EC90: human HepG2 cells. It is filed as cell-based. How it is done: CYP1A1 induction is under the control of the AhR signaling pathway. This Example describes an in vitro assay (7-ethoxy-resorufin-O-deethylase (EROD) assay) that evaluated the AhR modulating activities of the indole compounds described herein. In this assay, the indole compounds were incubated with human HepG2 cells or mouse Hepa1-6 cells. The activity of CYP1A1 in the cells was measured by the conversion of substrate 7-ethoxyresorufin, with the readout being a fluorescence signal associated with the conversion product. The EC50 values of the indole compounds as well as the maximum luminescence induced by them in the assay were determined.
Human HepG2 cells were obtained from Sigma Aldrich (Catalog 85011430-1VL).
Human HepG2 cells were grown to 60-80% confluency in tissue culture flasks, lifted with non-enzymatic cell dissociation solution (cell stripper), seeded in a 384-well plate at 5,000 cells per well, treated with the test compounds, and incubated for 20 hours overnight at 37° C. The treatment medium was removed and a solution of substrate 7-ethoxyresorufin (ETX) was added to initiate the reaction. The plate was incubated at 37° C. for 30 minutes. The reaction was subsequently terminated by adding tempered methanol. Fluorescent emission was measured at 590 nm with excitation at 530 nm in a FLEXSTATION III instrument (Molecular Devices).

A short description of data set [1]: Hepatocyte intrinsic clearance assay (metabolic stability), human hepatocytes. The conditions noted are these: male, human, cryopreserved pooled hepatocytes, Human Hepatocytes, 1 μM test compound. In kind it is in vitro ADME. In outline:
(§1)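 Cryopreserved pooled hepatocytes (1×10^6 cells/mL final) incubated with 1 μM compound at 37 °C, 5% CO2; samples at 0–120 min quenched in acetonitrile, analysed by LC-MS in duplicate. t1/2 and CLint from ln(% remaining) vs time slope; CLH via well-stirred liver model (fu=1) and EH derived from it.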

A further data set concerns human hepatocytes. The description is as above. It is filed as in vitro ADME. The conditions noted are these: Human Hepatocytes; well stirred liver model, fu=1. The essentials: as §1

T1 sequence (P08684 whole entry): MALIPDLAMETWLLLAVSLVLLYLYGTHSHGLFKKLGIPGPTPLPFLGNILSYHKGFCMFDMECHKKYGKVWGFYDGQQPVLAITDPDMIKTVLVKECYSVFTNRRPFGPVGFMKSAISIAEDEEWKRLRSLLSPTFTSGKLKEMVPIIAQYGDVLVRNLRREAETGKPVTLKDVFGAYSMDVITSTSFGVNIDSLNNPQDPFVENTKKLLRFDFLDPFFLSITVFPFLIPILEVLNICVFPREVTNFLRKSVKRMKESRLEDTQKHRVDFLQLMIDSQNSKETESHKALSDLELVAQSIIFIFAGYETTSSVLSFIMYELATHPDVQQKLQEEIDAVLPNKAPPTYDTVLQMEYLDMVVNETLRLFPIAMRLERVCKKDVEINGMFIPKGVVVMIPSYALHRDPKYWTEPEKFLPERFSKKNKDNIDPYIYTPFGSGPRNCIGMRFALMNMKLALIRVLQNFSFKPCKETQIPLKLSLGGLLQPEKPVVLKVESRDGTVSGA

One may read the EC90 as the concentration at which the effect reaches the 90% level. Usually EC50 stands for the midpoint of the concentration-response curve. As a reminder, the half-life is the time in which the quantity being followed falls by half. A word on the hepatocyte CLint: it is a measure of how fast metabolising enzymes remove a compound, apart from limits set by blood flow. Consider `N[C@H](c1csc(C(=O)c2c[nH]c3cc(F)ccc23)n1)C(F)(F)F` [ARI-223], for which, on CYP3A4, the “% Compound Metabolized at 30 min, CYP3A4 Inhibitor” value is reported as 42% and the “% Inhibition Relative to Negative Control, 3A4” value was determined as 47%. Moreover, at AhR, the EC90 turned out to be 103 nM and the midpoint of the response, the EC50, lay at 22.6 nM. In data set [1], this compound had a half-life at 1 μM of 1 h and a hepatocyte CLint at 1 μM of 11.6 µL/min/1e6 cells. The “EH (hepatic extraction ratio)” value with human hepatocytes turned out to be 23.7%.
For the compound `N[C@@H](c1csc(C(=O)c2c[nH]c3cc(F)ccc23)n1)C(F)(F)F` [ARI-224], at CYP3A4, the “% Compound Metabolized at 30 min, CYP3A4 Inhibitor” value worked out at 8% and the “% Inhibition Relative to Negative Control, 3A4” value is 11%. For the same compound, at AhR, the EC90 turned out to be 152 nM, the “fold more potent than ARI-164 by EC50” value stood at 3.1 ×, the “fold more potent than ARI-164 by EC90” value came out at 0.90 × and the EC50 stood at 33.7 nM. In data set [1], the half-life at 1 μM was 3 h and the hepatocyte CLint at 1 μM is 3.85 µL/min/1e6 cells. Also, the “EH (hepatic extraction ratio)” value with human hepatocytes is given as 15.8%.
For `NC1(c2csc(C(=O)c3c[nH]c4cc(F)ccc34)n2)CC1` [ARI-225, (4-(1-aminocyclopropyl)thiazol-2-yl)(6-fluoro-1H-indol-3-yl)methanone], at CYP3A4, the “% Compound Metabolized at 30 min, CYP3A4 Inhibitor” value amounted to 29% and the “% Inhibition Relative to Negative Control, 3A4” value stood at 26%. On AhR, this compound registered an EC90 of 109 nM and an EC50 of 46.8 nM. Also, in data set [1], the half-life at 1 μM was 2.3 h and the hepatocyte CLint at 1 μM amounted to 4.96 µL/min/1e6 cells. Besides, in the data set with human hepatocytes, the “EH (hepatic extraction ratio)” value was found to be 17.8%.
Take `CC(C)(N)c1csc(C(=O)c2c[nH]c3cc(F)ccc23)n1` [ARI-226, (4-(2-aminopropan-2-yl)thiazol-2-yl)(6-fluoro-1H-indol-3-yl)methanone]: on CYP3A4, the “% Compound Metabolized at 30 min, CYP3A4 Inhibitor” value was determined as 11% and the “% Inhibition Relative to Negative Control, 3A4” value is “None”. Also, at AhR, the 90% effect concentration (EC90) is 33 nM, the “fold more potent than ARI-164 by EC50” value came out at 4.2 ×, the “fold more potent than ARI-164 by EC90” value is listed as 4.2 × and the EC50 is 24.6 nM. In data set [1], this compound had a half-life at 1 μM of 3 h and a hepatocyte CLint at 1 μM of 3.85 µL/min/1e6 cells. Besides, the “EH (hepatic extraction ratio)” value with human hepatocytes was 15.8%.
As to `N[C@H](c1csc(C(=O)c2c[nH]c3ccccc23)n1)C(F)(F)F` [ARI-228], at CYP3A4, the “% Compound Metabolized at 30 min, CYP3A4 Inhibitor” value is 75% and the “% Inhibition Relative to Negative Control, 3A4” value is on record as 16%. At AhR, the EC90 came out at 217 nM and the EC50 was found to be 65.6 nM. In data set [1], the half-life at 1 μM is 0.2 h and the hepatocyte CLint at 1 μM is 64.4 µL/min/1e6 cells. The “EH (hepatic extraction ratio)” value with human hepatocytes stood at 27.6%.
For the compound `N[C@@H](c1csc(C(=O)c2c[nH]c3ccccc23)n1)C(F)(F)F` [ARI-229], at CYP3A4, the “% Compound Metabolized at 30 min, CYP3A4 Inhibitor” value is on record as 0% and the “% Inhibition Relative to Negative Control, 3A4” value is on record as “None”. At AhR, the EC90 stood at 204 nM and the EC50 amounted to 50.3 nM. In data set [1], this compound showed a half-life at 1 μM of 2.3 h and a hepatocyte CLint at 1 μM of 5.03 µL/min/1e6 cells. Further, the “EH (hepatic extraction ratio)” value with human hepatocytes is reported as 11.4%.
